Numbering of substitutions follows the chain as printed. Counter-ions that a name gives are not always drawn.
Tests used:
[1] = target: T1, heme oxygenase-2 (Homo sapiens, UniProt P30519); assay type: biochemical
T1 sequence (P30519 1-316): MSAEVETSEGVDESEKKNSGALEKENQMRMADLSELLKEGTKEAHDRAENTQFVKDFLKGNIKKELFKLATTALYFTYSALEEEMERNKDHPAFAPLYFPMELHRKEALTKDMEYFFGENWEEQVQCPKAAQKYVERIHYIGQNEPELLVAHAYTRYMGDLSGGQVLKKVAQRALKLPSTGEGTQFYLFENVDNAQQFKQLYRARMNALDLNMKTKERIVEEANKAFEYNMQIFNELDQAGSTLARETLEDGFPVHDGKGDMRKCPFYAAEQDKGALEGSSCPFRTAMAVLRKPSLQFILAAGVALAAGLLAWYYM

[2] = target: T2, heme oxygenase-2 (Homo sapiens, UniProt P30519, C265A/C282A); assay type: biochemical
T2 sequence (P30519 1-316 C265A/C282A): T1 sequence (P30519 1-316) with C265A, C282A

## c1ccc(CCn2c(CN3CCCC3)nc3ccccc32)cc1 [QC-2350, 1-(2-phenylethyl)-2-(pyrrolidin-1-ylmethyl)-1H-benzimidazole dihydrochloride]
[1]
  IC50: 20 µM
[2]
  IC50: 29 µM
